The source made the active and inactive calls. The calls are words filed in the database; no cut-off is given here.
Biological target: T1, Histidine-rich protein PFHRP-II (Plasmodium falciparum) (UniProt P05227)
T1 sequence (whole entry): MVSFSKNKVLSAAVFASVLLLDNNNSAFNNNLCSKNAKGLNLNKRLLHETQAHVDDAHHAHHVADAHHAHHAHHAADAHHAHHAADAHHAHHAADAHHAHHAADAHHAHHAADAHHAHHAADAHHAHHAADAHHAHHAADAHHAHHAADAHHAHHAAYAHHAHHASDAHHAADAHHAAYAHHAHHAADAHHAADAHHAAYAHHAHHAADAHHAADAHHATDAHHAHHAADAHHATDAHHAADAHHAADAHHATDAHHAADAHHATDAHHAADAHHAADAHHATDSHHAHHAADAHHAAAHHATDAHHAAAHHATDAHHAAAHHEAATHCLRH
Experiment: Inhibition of beta-hematin formation assessed as drug: hematin molar ratio causing inhibition of hem polymerization after 24 hrs by HPIA method
Assay type: functional

`C[C@@H]1CC[C@H]2[C@@H](C)C(=O)O[C@@H]3O[C@@]4(C)CC[C@@H]1[C@]32OO4` showed a Ratio IC50 of 1.5.

For `COc1cc(NS(=O)(=O)c2ccc(N)cc2)nc(OC)n1`, the Activity was “inactive”.

Reference: ChEMBL document CHEMBL1142472, “New ferrocenic pyrrolo[1,2-a]quinoxaline derivatives: synthesis, and in vitro antimalarial activity” (Bioorg Med Chem, 2008)
